Columns and labels:
[1] = DRUGMATRIX: Sodium/nucleoside co-transporter radioligand binding (ligand: nitrobenzylthioinosine); assay type: cell membranes, Cavia porcellus, Dunkin-Hartley, Cerebral cortex, Membrane; conditions: Not Active = under 50% inhibition at 10 µM
[2] = target: T1, Alpha-1A adrenergic receptor (Rattus norvegicus, UniProt P43140); assay: DRUGMATRIX: Alpha-1A adrenergic receptor radioligand binding (ligand: prazosin); assay type: cell membranes, Wistar, Submaxillary gland, Membrane; conditions: Not Active = under 50% inhibition at 10 µM
T1 sequence (P43140 whole entry): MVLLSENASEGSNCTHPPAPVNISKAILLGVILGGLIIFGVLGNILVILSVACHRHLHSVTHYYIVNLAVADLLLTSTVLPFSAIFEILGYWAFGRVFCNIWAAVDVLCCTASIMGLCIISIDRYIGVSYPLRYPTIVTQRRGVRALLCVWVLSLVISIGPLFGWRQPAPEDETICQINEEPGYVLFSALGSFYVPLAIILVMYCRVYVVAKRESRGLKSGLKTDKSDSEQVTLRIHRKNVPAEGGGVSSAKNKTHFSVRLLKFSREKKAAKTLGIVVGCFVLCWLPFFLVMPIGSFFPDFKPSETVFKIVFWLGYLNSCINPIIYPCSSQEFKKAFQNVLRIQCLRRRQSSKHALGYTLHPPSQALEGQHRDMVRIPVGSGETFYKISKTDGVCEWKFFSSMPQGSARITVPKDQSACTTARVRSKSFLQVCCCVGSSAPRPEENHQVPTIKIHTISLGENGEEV

[3] = target: Mitogen-activated protein kinase 1 (Homo sapiens, UniProt P28482); assay: DRUGMATRIX: Protein Serine/Threonine Kinase, ERK2 enzyme inhibition (substrate: Myelin Basic Protein); parameters: species or system Escherichia coli; conditions: Not Active = under 50% inhibition at 10 µM
[4] = target: T2, Caspase-1 (Homo sapiens, UniProt P29466); parameters: species or system Escherichia coli;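 further: Caspase-1 enzyme inhibition assay with a peptide substrate; in other assays of this panel Not Active means under 50% inhibition at 10 µM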
T2 sequence (P29466 whole entry): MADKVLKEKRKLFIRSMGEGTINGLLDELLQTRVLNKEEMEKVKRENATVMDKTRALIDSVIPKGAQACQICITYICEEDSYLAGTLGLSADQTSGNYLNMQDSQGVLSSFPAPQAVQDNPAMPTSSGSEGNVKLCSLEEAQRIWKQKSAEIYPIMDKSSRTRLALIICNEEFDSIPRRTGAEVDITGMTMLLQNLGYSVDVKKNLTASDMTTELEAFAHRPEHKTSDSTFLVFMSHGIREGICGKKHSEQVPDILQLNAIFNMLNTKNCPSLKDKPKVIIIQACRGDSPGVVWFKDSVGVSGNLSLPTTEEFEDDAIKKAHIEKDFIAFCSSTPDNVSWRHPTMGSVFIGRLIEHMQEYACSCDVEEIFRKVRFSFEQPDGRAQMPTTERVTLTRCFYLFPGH

[5] = target: Aldo-keto reductase family 1 member B1 (Rattus norvegicus, UniProt P07943); assay type: tissue-based, Lens of camera-type eye;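 further: inhibition of aldose reductase enzyme activity, measured with DL-glyceraldehyde as the substrate; in other assays of this panel Not Active means under 50% inhibition at 10 µM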
[6] = DRUGMATRIX: Sigma2 radioligand binding (ligand: [3H] Ifenprodil); assay type: cell membranes, Rattus norvegicus, Wistar, Brain, Membrane; conditions: Not Active = under 50% inhibition at 10 µM
[7] = target: Cytochrome P450 3A4 (Homo sapiens, UniProt P08684); conditions: bti-tn-5b1-4; further: in other assays of this panel Not Active means under 50% inhibition at 10 µM
Cytochrome P450 3A4, sequence (P08684 whole entry): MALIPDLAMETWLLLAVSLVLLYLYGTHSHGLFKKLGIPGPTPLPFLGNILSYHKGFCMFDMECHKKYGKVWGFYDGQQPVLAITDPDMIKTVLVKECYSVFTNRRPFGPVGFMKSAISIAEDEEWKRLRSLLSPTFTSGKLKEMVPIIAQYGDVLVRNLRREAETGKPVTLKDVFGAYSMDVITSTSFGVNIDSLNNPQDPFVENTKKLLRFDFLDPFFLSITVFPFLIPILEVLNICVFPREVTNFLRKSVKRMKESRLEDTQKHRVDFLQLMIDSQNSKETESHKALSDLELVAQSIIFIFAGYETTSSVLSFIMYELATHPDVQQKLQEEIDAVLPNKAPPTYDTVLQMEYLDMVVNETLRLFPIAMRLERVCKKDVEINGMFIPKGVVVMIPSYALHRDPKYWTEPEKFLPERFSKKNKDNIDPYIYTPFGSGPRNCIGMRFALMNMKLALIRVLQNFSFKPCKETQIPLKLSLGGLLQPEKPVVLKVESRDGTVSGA

Mitogen-activated protein kinase 1, sequence (P28482 whole entry): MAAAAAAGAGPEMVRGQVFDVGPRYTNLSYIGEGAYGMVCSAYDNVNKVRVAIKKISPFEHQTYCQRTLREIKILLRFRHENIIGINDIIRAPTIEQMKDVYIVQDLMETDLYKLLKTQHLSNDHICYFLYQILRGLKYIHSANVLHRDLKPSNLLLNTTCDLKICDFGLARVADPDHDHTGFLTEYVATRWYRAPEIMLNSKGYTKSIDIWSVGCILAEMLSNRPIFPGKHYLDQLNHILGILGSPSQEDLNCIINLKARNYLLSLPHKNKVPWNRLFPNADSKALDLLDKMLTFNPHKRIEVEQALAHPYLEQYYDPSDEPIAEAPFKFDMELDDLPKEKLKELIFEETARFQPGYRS

CCn1cc(C(=O)O)c(=O)c2cnc(N3CCCC3)nc21 [PIROMIDIC ACID]
Not Active: IC50 [1] | Ki [1] | IC50 [2] | IC50 [3] | IC50 [4] | IC50 [5] | IC50 [6] | Ki [6] | IC50 [7] | Ki [7]

C[n+]1ccccc1/C=N/O.[Cl-] [PRALIDOXIME CHLORIDE]
Not Active: IC50 [1] | Ki [1] | IC50 [2] | IC50 [3] | IC50 [4] | IC50 [5] | IC50 [6] | Ki [6] | IC50 [7] | Ki [7]

C[C@]12C=CC(=O)C=C1CC[C@@H]1[C@@H]2[C@@H](O)C[C@@]2(C)[C@H]1CC[C@]2(O)C(=O)CO [PREDNISOLONE]
Not Active: IC50 [1] | Ki [1] | IC50 [2] | IC50 [3] | IC50 [4] | IC50 [5] | IC50 [6] | Ki [6] | IC50 [7] | Ki [7]

CC(=O)[C@H]1[C@H](C#N)C[C@H]2[C@@H]3CC=C4C[C@@H](O)CC[C@]4(C)[C@H]3CC[C@@]21C [PREGNENOLONE CARBONITRILE]
Not Active: IC50 [1] | Ki [1] | IC50 [2] | IC50 [3] | IC50 [4] | IC50 [5] | IC50 [6] | Ki [6] | IC50 [7] | Ki [7]

CCCN(CCC)S(=O)(=O)c1ccc(C(=O)O)cc1 [PROBENECID]
Not Active: IC50 [1] | Ki [1] | IC50 [2] | IC50 [3] | IC50 [4] | IC50 [5] | IC50 [6] | Ki [6] | IC50 [7] | Ki [7]

CCCOc1ccc(C(=O)OCCN(CC)CC)cc1N [PROPARACAINE]
Not Active: IC50 [1] | Ki [1] | IC50 [2] | IC50 [3] | IC50 [4] | IC50 [5] | IC50 [6] | Ki [6] | IC50 [7] | Ki [7]

C[C@@H]1O[C@@H](O[C@@H]2C=C3CC[C@@H]4[C@H](CC[C@]5(C)[C@@H](c6ccc(=O)oc6)CC[C@]45O)[C@@]3(C)CC2)[C@H](O)[C@H](O)[C@H]1O [PROSCILLARIDIN]
Not Active: IC50 [1] | Ki [1] | IC50 [2] | IC50 [3] | IC50 [4] | IC50 [5] | IC50 [6] | Ki [6] | IC50 [7] | Ki [7]

Oc1cccc(O)c1O [PYROGALLOL]
Not Active: IC50 [1] | Ki [1] | IC50 [2] | IC50 [3] | IC50 [4] | IC50 [5] | IC50 [6] | Ki [6] | IC50 [7] | Ki [7]

AURANOFIN
Not Active: IC50 [1] | Ki [1] | IC50 [2] | Ki [2] | IC50 [3] | Ki [3] | IC50 [4] | Ki [4] | IC50 [5] | Ki [5] | IC50 [6] | Ki [6] | IC50 [7] | Ki [7]

GADOPENTETATE DIMEGLUMINE
Not Active: IC50 [1] | Ki [1] | IC50 [2] | Ki [2] | IC50 [3] | Ki [3] | IC50 [4] | Ki [4] | IC50 [5] | Ki [5] | IC50 [6] | Ki [6] | IC50 [7] | Ki [7]

GENTAMICIN
Not Active: IC50 [1] | Ki [1] | IC50 [2] | Ki [2] | IC50 [3] | Ki [3] | IC50 [4] | Ki [4] | IC50 [5] | Ki [5] | IC50 [6] | Ki [6] | IC50 [7] | Ki [7]

GRAMICIDIN
Not Active: IC50 [1] | Ki [1] | IC50 [2] | Ki [2] | IC50 [3] | Ki [3] | IC50 [4] | Ki [4] | IC50 [5] | Ki [5] | IC50 [6] | Ki [6] | IC50 [7] | Ki [7]

NYSTATIN
Not Active: IC50 [1] | Ki [1] | IC50 [2] | Ki [2] | IC50 [3] | Ki [3] | IC50 [4] | Ki [4] | IC50 [5] | Ki [5] | IC50 [6] | Ki [6] | IC50 [7] | Ki [7]
